Where two headings read alike, the source gives them in different places.

For assay [1], the target named is BTK enzyme (recombinant full-length BTK, hBTK) (Homo sapiens (Human), UniProt Q06187). The assay is described as follows: Btk enzyme activity assay, LANCE TR-FRET. The assay is classed as biochemical. Particulars: 50 pM hBTK, 2 μM biotin-A5-peptide, 25 μM ATP; 60 minute compound & enzyme incubation; read-out: BTK binding IC50. The protocol: Btk Enzyme Activity Assay Methods
BTK enzymatic activity was determined with the LANCE (Lanthanide Chelate Excite) TR-FRET (Time-resolved fluorescence resonance energy transfer) assay. […] After 60 minutes incubation with detection reagents, reaction plates were read on a PerkinElmer EnVision plate reader using standard TR-FRET protocol.
On the technique in general: TR-FRET usually uses a lanthanide donor and a delayed reading to cut background.

For a further assay, the system named is HeLa cells. Kind of assay: [3H] Adenosine uptake assay. The class given is cell-based. Particulars: accumulation of tritiated adenosine into HeLa cells, compound concentration range 10 μM to 0.032 nM, read-out: ADU inhibition IC50 (adenosine uptake inhibition potency). The gist of the method:
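HeLa cells in HBSS + 5% FBS preincubated 30 min at ambient temperature with compound (0.25% DMSO), then [3H]adenosine (500 nM stock) added for 60 min. Uptake measured by scintillation proximity counting; IC50 from 4-parameter fit of counts vs log concentration.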

Chain of BTK enzyme (recombinant full-length BTK, hBTK) (Q06187 whole entry): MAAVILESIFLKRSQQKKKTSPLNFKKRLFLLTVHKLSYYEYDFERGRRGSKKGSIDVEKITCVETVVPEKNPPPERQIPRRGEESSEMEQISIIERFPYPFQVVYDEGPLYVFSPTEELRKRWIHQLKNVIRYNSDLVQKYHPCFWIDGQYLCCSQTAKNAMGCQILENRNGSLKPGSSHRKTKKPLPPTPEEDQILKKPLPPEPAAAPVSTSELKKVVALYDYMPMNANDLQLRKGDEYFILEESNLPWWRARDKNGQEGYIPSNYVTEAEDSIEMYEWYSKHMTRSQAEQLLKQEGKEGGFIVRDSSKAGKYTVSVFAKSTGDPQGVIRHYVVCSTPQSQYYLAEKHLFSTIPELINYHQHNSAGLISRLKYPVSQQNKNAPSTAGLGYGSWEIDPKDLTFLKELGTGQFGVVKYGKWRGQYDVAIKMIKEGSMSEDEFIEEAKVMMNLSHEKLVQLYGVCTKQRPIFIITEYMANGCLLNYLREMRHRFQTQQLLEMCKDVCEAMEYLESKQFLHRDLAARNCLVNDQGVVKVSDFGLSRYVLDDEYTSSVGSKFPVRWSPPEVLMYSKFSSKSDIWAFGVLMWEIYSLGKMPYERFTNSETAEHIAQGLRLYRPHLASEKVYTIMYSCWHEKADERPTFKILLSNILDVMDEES

As for `C[C@H]1CO[C@@H](c2nc(-c3ccc(C(=O)Nc4cc(C(F)(F)F)ccn4)cc3)c3c(N)nccn23)CN1C(=O)C12CC(C(=O)O)(C1)C2` [Example 175, 3-((2R,5S)-2-(8-amino-1-(4-((4-(trifluoromethyl)pyridin-2-yl)carbamoyl)phenyl)imidazo[1,5-a]pyrazin-3-yl)-5-methylmorpholine-4-carbonyl)bicyclo[1.1.1]pentane-1-carboxylic acid], the IC50 – broadly, the concentration needed to halve the response being measured – in assay [1] was 0.37 nM; in the assay on HeLa cells (Homo sapiens, HeLa) it was 10000 nM.
In the same order, the values of `CCOc1cc(C(=O)Nc2cc(C(F)(F)F)ccn2)ccc1-c1nc(C23CCCC(C(=O)O)(CC2)CC3)n2ccnc(N)c12` [Example 67, 5-[8-amino-1-(2-ethoxy-4-{[4-(trifluoromethyl)pyridin-2-yl]carbamoyl}phenyl)imidazo[1,5-a]pyrazin-3-yl]bicyclo[3.2.2] nonane-1-carboxylic acid] are 0.39 nM and 4910 nM.
On the same counts, the results for `CC(C)[C@]1(C(=O)O)CC[C@@H](c2nc(-c3ccc(C(=O)Nc4cc(C(F)(F)F)ccn4)cc3)c3c(N)ncc(Cl)n23)C1` [Example 106, (1S.3R)-3-[8-amino-5-chloro-1-(4-{[4-(trifluoromethyl)pyridin-2-yl]carbamoyl}phenyl)imidazo[1,5-a]pyrazin-3-yl]-1-(1-methylethyl) cyclopentane-carboxylic acid] are 0.74 nM and 781 nM.
Regarding `COc1cc(C(=O)Nc2cc(C(F)(F)F)ccn2)ccc1-c1nc(C23CCC(C(=O)O)(CC2)CC3)n2ccnc(N)c12` [Example 171, 4-[8-amino-1-(2-methoxy-4-{[4-(trifluoromethyl)pyridin-2-yl]carbamoyl}phenyl)imidazo[1,5-a]pyrazin-3-yl]bicyclo[2.2.2] octane-1-carboxylic acid], the IC50 in assay [1] was found to be 0.29 nM; with HeLa cells (Homo sapiens, HeLa), 6880 nM.
`Cc1cnc(N)c2c(-c3ccc(C(=O)Nc4ccccn4)cc3)nc([C@H]3CN([C@H]4CC[C@](C)(C(=O)O)CC4)CCO3)n12` [Example 199, trans-4-[(2R)-2-{8-amino-5-methyl-1-[4-(pyridin-2-ylcarbamoyl)phenyl]imidazo [1,5-a]pyrazin-3-yl}morpholin-4-yl]-1-methylcyclohexanecarboxylic acid]: the IC50 in assay [1] stood at 5.9 nM; in the assay with HeLa cells (Homo sapiens, HeLa) it was 2020 nM.
On the same counts, the results for `CCOc1cc(C(=O)Nc2cc(C(F)(F)F)ccn2)ccc1-c1nc([C@@]2(C)CC[C@@](C)(C(=O)O)C2)n2ccnc(N)c12` [Example 86, (1R,3S)-3-[8-amino-1-(2-ethoxy-4-{[4-(trifluoromethyl)pyridin-2-yl]carbamoyl}phenyl)imidazo[1,5-a]pyrazin-3-yl]-1,3-dimethylcyclopentane carboxylic acid] are 4.2 nM and 10000 nM.
In the same order, the values of `CCOc1cc(C(=O)Nc2cc(C(F)(F)F)ccn2)cc(F)c1-c1nc([C@@]2(C)CC[C@](C)(C(=O)O)C2)n2ccnc(N)c12` [Example 126, (1S,3S)-3-[8-amino-1-(2-ethoxy-6-fluoro-4-{[4-(trifluoromethyl)pyridin-2-yl]carbamoyl}phenyl)imidazo[1,5-a]pyrazin-3-yl]-1,3-dimethylcyclopentane carboxylic acid] are 0.47 nM and 10000 nM.
On the same counts, the results for `CC1(C(=O)O)CCC(C)(c2nc(-c3ccc(C(=O)Nc4cc(C(F)(F)F)ccn4)cc3F)c3c(N)nccn23)CC1` (stereo not shown) [Example 134, 4-[8-amino-1-(2-fluoro-4-{[4-(trifluoromethyl)pyridin-2-yl]carbamoyl}phenyl)imidazo[1,5-a]pyrazin-3-yl]-1,4-dimethylcyclohexane-carboxylic acid] are 0.5 nM and 2770 nM.
`CCOc1cc(C(=O)Nc2cc(C(F)(F)F)ccn2)ccc1-c1nc(C23CCC(C(=O)O)(CC2O)C(O)C3)n2ccnc(N)c12` (stereo not shown) [Example 174, 4-(8-amino-1-(2-ethoxy-4-((4-(trifluoromethyl)pyridin-2-yl)carbamoyl)phenyl)imidazo[1,5-a]pyrazin-3-yl)-2,5-dihydroxybicyclo[2.2.2]octane-1-carboxylic acid]: the IC50 in assay [1] amounted to 3.9 nM; with HeLa cells (Homo sapiens, HeLa), 10000 nM.
Take `CC(C)(C(=O)O)N1CCO[C@@H](c2nc(-c3ccc(C(=O)Nc4cc(C(F)(F)F)ccn4)cc3)c3c(N)nccn23)C1` [Example 183, 2-{(2R)-2-[8-amino-1-(4-{[4-(trifluoromethyl)pyridin-2-yl]carbamoyl}phenyl)imidazo [1,5-a]pyrazin-3-yl]morpholin-4-yl}-2-methylpropanoic acid]: the IC50 in assay [1] stood at 13.2 nM; in the assay with HeLa cells (Homo sapiens, HeLa), 665 nM.
On the same counts, the results for `CCOc1cc(C(=O)Nc2cc(C(F)(F)F)ccn2)ccc1-c1nc([C@H]2C[C@H]3CC[C@@H](C2)[C@H]3C(=O)O)n2ccnc(N)c12` [Example 104, (3-endo,8-syn)-3-[8-amino-1-(2-ethoxy-4-{[4-(trifluoromethyl)pyridin-2-yl]carbamoyl}phenyl)imidazo[1,5-a]pyrazin-3-yl]bicyclo[3.2.1] octane-8-carboxylic acid] are 5.2 nM and 10000 nM.
On the same counts, the results for `CC1(C(=O)O)CCC(N2CCO[C@@H](c3nc(-c4ccc(C(=O)Nc5cc(C(F)(F)F)ccn5)cc4)c4c(N)nccn34)C2)CC1` (stereo partly drawn) [Example 176, (R)-4-(2-(8-amino-1-(4-((4-(trifluoromethyl)pyridin-2-yl)carbamoyl)phenyl)imidazo[1,5-a]pyrazin-3-yl)morpholino)-1-methylcyclohexanecarboxylic acid] are 0.49 nM and 1320 nM.
Consider `CCOc1cc(C(=O)Nc2cc(C(F)(F)F)ccn2)ccc1-c1nc(C23C4C5C2C2C3C4C52C(=O)O)n2ccnc(N)c12` (stereo not shown) [Example 71, 4-(8-amino-1-(2-ethoxy-4-((4-(trifluoromethyl)pyridin-2-yl)carbamoyl)phenyl)imidazo[1,5-a]pyrazin-3-yl)cubane-1-carboxylic acid], for which the IC50 in assay [1] worked out at 0.65 nM; in the assay on HeLa cells (Homo sapiens, HeLa), 2470 nM.
In the same order, the values of `CC1(C)CC(c2nc(-c3ccc(C(=O)Nc4cc(C(F)(F)F)ccn4)cc3)c3c(N)nccn23)CCC1C(=O)O` (stereo not shown) [Example 20, 4-(8-amino-1-(4-((4-(trifluoromethyl)pyridin-2-yl)carbamoyl)phenyl)imidazo[1,5-a]pyrazin-3-yl)-2,2-dimethylcyclohexanecarboxylic acid] are 1.5 nM and 5080 nM.
In the same order, the values of `Nc1nccn2c([C@H]3CC[C@@H](C(=O)N4CC[C@@H](C(=O)O)C4)C3)nc(-c3ccc(C(=O)Nc4cc(C(F)(F)F)ccn4)cc3)c12` [Example 19, (3R)-1-({(1R,3S)-3-[8-amino-1-(4-{[4-(trifluoromethyl)pyridin-2-yl]carbamoyl}phenyl)imidazo[1,5-a]pyrazin-3-yl]cyclopentyl}carbonyl)pyrrolidine-3-carboxylic acid] are 0.62 nM and 2870 nM.
On to `CCOc1cc(C(=O)Nc2cc(C(F)(F)F)ccn2)ccc1-c1nc(C23CCC(C(=O)O)(CC2)C2CC23)n2ccnc(N)c12` (stereo not shown) [Example 100, 5-[8-amino-1-(2-ethoxy-4-{[4-(trifluoromethyl)pyridin-2-yl]carbamoyl}phenyl)imidazo[1,5-a]pyrazin-3-yl]tricyclo[3.2.2.0~2,4~] nonane-1-carboxylic acid], for which the IC50 in assay [1] was determined as 0.54 nM; in the assay on HeLa cells (Homo sapiens, HeLa), 4720 nM.
In the case of `CCOc1cc(C(=O)Nc2cc(C(F)(F)F)ccn2)ccc1-c1nc([C@H]2CCC[C@](C(=O)O)(C(C)C)C2)n2ccnc(N)c12` [Example 90, (1R,3S)-3-[8-amino-1-(2-ethoxy-4-{[4-(trifluoromethyl)pyridin-2-yl]carbamoyl}phenyl)imidazo[1,5-a]pyrazin-3-yl]-1-(1-methylethyl) cyclohexane-carboxylic acid], the IC50 came out at 1.8 nM in assay [1] and 10000 nM with HeLa cells (Homo sapiens, HeLa).
On to `COc1cc(C(=O)Nc2cc(C(F)(F)F)ccn2)ccc1-c1nc([C@H]2CN(C(=O)C34CC(C(=O)O)(C3)C4)[C@@H](C)CO2)n2ccnc(N)c12` [Example 177, 3-({(2R,5S)-2-[8-amino-1-(2-methoxy-4-{[4-(trifluoromethyl)pyridin-2-yl]carbamoyl}phenyl)imidazo [1,5-a]pyrazin-3-yl]-5-methylmorpholin-4-yl}carbonyl)bicyclo[1.1.1] pentane-1-carboxylic acid], for which the IC50 in assay [1] worked out at 0.76 nM; in the assay on HeLa cells (Homo sapiens, HeLa), 10000 nM.
As for `CC(C)C1(C(=O)O)CCC(C)(c2nc(-c3ccc(C(=O)Nc4cc(C(F)(F)F)ccn4)cc3)c3c(N)nccn23)C1` (stereo not shown) [Example 146, 3-[8-amino-1-(4-{[4-(trifluoromethyl)pyridin-2-yl]carbamoyl}phenyl)imidazo[1,5-a]pyrazin-3-yl]-3-methyl-1-(1-methylethyl) cyclopentane-carboxylic acid], the half-maximal inhibitory concentration (IC50) in assay [1] worked out at 456 nM; with HeLa cells it was 10000 nM.
On to `Nc1nccn2c([C@H]3CC[C@H]4[C@H](C(=O)O)[C@H]43)nc(-c3ccc(C(=O)Nc4cc(C(F)(F)F)ccn4)cc3)c12` [Example 57, (1R,2S,5R,6S)-2-[8-amino-1-(4-{[4-(trifluoromethyl)pyridin-2-yl]carbamoyl}phenyl)imidazo[1,5-a]pyrazin-3-yl]bicyclo[3.1.0] hexane-6-carboxylic acid], for which the IC50 in assay [1] stood at 3.2 nM; with HeLa cells (Homo sapiens, HeLa) it was 10000 nM.

For the origin of these results see patent US10087188B2, “Benzamide imidazopyrazine Btk inhibitors” (MERCK SHARP & DOHME CORP., priority 2014, dated 2018).
